Reference: the supplement of paper PMC10307832

What follows are cell lines tested with COc1cc2nc(N3CCCN(C)CC3)nc(NC3CCN(Cc4ccccc4)CC3)c2cc1OC + COc1cc2c(Oc3ccc(NC(=O)C4(C(=O)Nc5ccc(F)cc5)CC4)cc3F)ccnc2cc1OCCCN1CCOCC1 [Foretinib] (partner 0.25 µM) (assay: relative viability (nuclei count vs DMSO), 5 days (fraction); higher = more cells survive). Conditions: first compound 0.2 µM.
Outline: (§1)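 Medians of duplicate plates are given as relative viability. That measure is the nuclei count in treated wells divided by the count in vehicle wells. Counts were taken on 4× images of lung cancer cell lines in 1536-well plates, 5 days after pin-tool dosing the day after seeding with one drug alone or a fixed anchor-drug dose plus five library-drug doses (not always all listed) in √10 steps.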

Cell Line | relative viability
NCI-H2170 | 0.982
NCI-H2405 | 1.05
HOP-62 | 1.06
LU99A | 0.895
BEN | 0.908
HARA | 0.973
HCC-78 | 0.57
NCI-H322M | 0.899
LCLC-97TM1 | 0.951
A-427 | 0.918
NCI-H441 | 0.957
NCI-H1734 | 0.934
NCI-H460 | 0.922
NCI-H2347 | 0.791
NCI-H1395 | 0.895
201T | 1.13
NCI-H1915 | 1.05
HCC-827 | 1.06
LXF-289 | 0.936
NCI-H23 | 0.914
NCI-H647 | 1.15
CAL-12T | 1.01
NCI-H1651 | 0.85
EPLC-272H | 0.783

Same assay, conditions: first compound 0.6325 µM

Cell Line | relative viability
NCI-H727 | 1.04
NCI-H1993 | 0.735
NCI-H838 | 1.17
LCLC-103H | 0.857
NCI-H2126 | 1.15
EMC-BAC-2 | 0.973
NCI-H2085 | 0.926
HCC-366 | 0.966
NCI-H1666 | 0.969
NCI-H596 | 0.902
LK-2 | 0.932
NCI-H2087 | 0.99
H3255 | 0.812
LOU-NH91 | 0.996
NCI-H2170 | 0.955
NCI-H2405 | 1
HOP-62 | 1.09
LU99A | 0.864
BEN | 0.786

Cell Line | relative viability
HARA | 0.9
HCC-78 | 0.578
NCI-H322M | 0.94
LCLC-97TM1 | 0.994
A-427 | 0.977
NCI-H441 | 0.954
NCI-H1734 | 0.846
NCI-H460 | 0.952
NCI-H2347 | 0.834
NCI-H1395 | 1
201T | 1.08
NCI-H1915 | 1.01
HCC-827 | 1.12
LXF-289 | 0.993
NCI-H23 | 1.06
NCI-H647 | 0.952
CAL-12T | 1.15
NCI-H1651 | 0.688
EPLC-272H | 0.723

Same assay, conditions: first compound 2 µM

Cell Line | relative viability
NCI-H727 | 0.889
NCI-H1993 | 0.756
NCI-H838 | 1.06
LCLC-103H | 0.825
NCI-H2126 | 1.16
EMC-BAC-2 | 1.05
NCI-H2085 | 0.965
HCC-366 | 0.906
NCI-H1666 | 1.13
NCI-H596 | 0.78
LK-2 | 1.13
NCI-H2087 | 1.31
H3255 | 0.981
LOU-NH91 | 0.866
NCI-H2170 | 0.996
NCI-H2405 | 1.06
HOP-62 | 1.1
LU99A | 0.821
BEN | 0.91

Cell Line | relative viability
HARA | 0.92
HCC-78 | 0.58
NCI-H322M | 1.05
LCLC-97TM1 | 0.913
A-427 | 1.13
NCI-H441 | 0.928
NCI-H1734 | 0.849
NCI-H460 | 1.03
NCI-H2347 | 1.02
NCI-H1395 | 0.93
201T | 1.09
NCI-H1915 | 1.1
HCC-827 | 1.05
LXF-289 | 0.984
NCI-H23 | 1.12
NCI-H647 | 1.35
CAL-12T | 1.38
NCI-H1651 | 0.934
EPLC-272H | 0.847

Same assay, conditions: first compound 6.325 µM

Cell Line | relative viability
NCI-H727 | 0.832
NCI-H1993 | 0.912
NCI-H838 | 1.03
LCLC-103H | 0.772
NCI-H2126 | 1.09
EMC-BAC-2 | 1.01
NCI-H2085 | 0.944
HCC-366 | 0.945
NCI-H1666 | 0.932
NCI-H596 | 0.76
LK-2 | 1.12
NCI-H2087 | 1.25
H3255 | 1.05
LOU-NH91 | 0.993
NCI-H2170 | 1.01
NCI-H2405 | 1.07
HOP-62 | 1.15
LU99A | 0.803
BEN | 0.972

Cell Line | relative viability
HARA | 0.92
HCC-78 | 0.533
NCI-H322M | 0.923
LCLC-97TM1 | 0.844
A-427 | 1.09
NCI-H441 | 1.02
NCI-H1734 | 0.91
NCI-H460 | 0.993
NCI-H2347 | 1
NCI-H1395 | 0.858
201T | 1.11
NCI-H1915 | 1.12
HCC-827 | 1.02
LXF-289 | 1
NCI-H23 | 0.918
NCI-H647 | 0.918
CAL-12T | 0.941
NCI-H1651 | 0.807
EPLC-272H | 0.686

The cell lines below were run with Cc1cc([C@@H](C)Nc2ccccc2C(=O)O)c2nc(N3CCOCC3)cc(=O)n2c1 [AZD6482] + Cc1nc(NC(=O)N2CCC[C@H]2C(N)=O)sc1-c1ccnc(C(C)(C)C(F)(F)F)c1 [Alpelisib] (partner 2 µM) in the same assay as above. Conditions: first compound 0.08 µM.
Outline: as §1

Cell Line | relative viability
NCI-H727 | 0.398
NCI-H1993 | 0.701
NCI-H838 | 0.8
LCLC-103H | 0.877
NCI-H2126 | 0.608
EMC-BAC-2 | 0.639
NCI-H2085 | 0.426
HCC-366 | 0.171
NCI-H1666 | 0.609
NCI-H596 | 0.449
LK-2 | 1.07
NCI-H2087 | 0.953
H3255 | 0.531
LOU-NH91 | 0.547
NCI-H2170 | 0.662
NCI-H2405 | 0.354
HOP-62 | 1
LU99A | 0.452
BEN | 0.866

Cell Line | relative viability
HARA | 0.459
HCC-78 | 0.222
NCI-H322M | 0.574
LCLC-97TM1 | 0.274
A-427 | 1.08
NCI-H441 | 0.65
NCI-H1734 | 0.416
NCI-H460 | 0.206
NCI-H1395 | 0.696
201T | 0.908
NCI-H1915 | 1.04
HCC-827 | 0.613
LXF-289 | 0.946
NCI-H23 | 0.642
NCI-H647 | 0.622
CAL-12T | 0.902
NCI-H1651 | 0.791
EPLC-272H | 0.593

Same assay, conditions: first compound 0.253 µM

Cell Line | relative viability
NCI-H727 | 0.535
NCI-H1993 | 0.653
NCI-H838 | 0.98
LCLC-103H | 0.747
NCI-H2126 | 0.569
EMC-BAC-2 | 0.624
NCI-H2085 | 0.409
HCC-366 | 0.165
NCI-H1666 | 0.748
NCI-H596 | 0.437
NCI-H2087 | 1.06
H3255 | 0.54
LOU-NH91 | 0.676
NCI-H2170 | 0.666
HOP-62 | 0.959
LU99A | 0.441
BEN | 0.886

Cell Line | relative viability
HARA | 0.762
HCC-78 | 0.179
NCI-H322M | 0.553
LCLC-97TM1 | 0.19
A-427 | 0.967
NCI-H441 | 0.834
NCI-H1734 | 0.444
NCI-H460 | 0.352
NCI-H2347 | 0.743
NCI-H1395 | 0.573
201T | 0.809
NCI-H1915 | 1.02
HCC-827 | 0.506
LXF-289 | 1.01
NCI-H23 | 0.534
CAL-12T | 0.661
NCI-H1651 | 0.778

Same assay, conditions: first compound 0.8 µM

Cell Line | relative viability
NCI-H727 | 0.46
NCI-H838 | 0.881
LCLC-103H | 0.701
NCI-H2126 | 0.606
EMC-BAC-2 | 0.619
NCI-H2085 | 0.351
HCC-366 | 0.208
NCI-H1666 | 0.751
NCI-H596 | 0.445
LK-2 | 1.86
NCI-H2087 | 1.17
H3255 | 0.614
LOU-NH91 | 0.647
NCI-H2170 | 0.713
NCI-H2405 | 0.603
HOP-62 | 1.19
LU99A | 0.619
BEN | 1.11
HARA | 0.849

Cell Line | relative viability
HCC-78 | 0.212
NCI-H322M | 0.573
LCLC-97TM1 | 0.238
A-427 | 1.04
NCI-H441 | 0.592
NCI-H1734 | 0.431
NCI-H460 | 0.263
NCI-H2347 | 0.891
NCI-H1395 | 0.732
201T | 0.842
NCI-H1915 | 1.1
HCC-827 | 0.456
LXF-289 | 0.966
NCI-H23 | 0.713
NCI-H647 | 0.778
CAL-12T | 0.901
NCI-H1651 | 0.712
EPLC-272H | 0.554

Same assay, conditions: first compound 2.53 µM

Cell Line | relative viability
NCI-H838 | 0.679
LCLC-103H | 0.605
NCI-H2126 | 0.476
EMC-BAC-2 | 0.571
NCI-H2085 | 0.34
HCC-366 | 0.105
NCI-H1666 | 0.64
NCI-H596 | 0.44
LK-2 | 0.972
NCI-H2087 | 0.819
H3255 | 0.335
LOU-NH91 | 0.525
NCI-H2170 | 0.56
NCI-H2405 | 0.384
HOP-62 | 0.531
LU99A | 0.372
BEN | 0.828
HCC-78 | 0.159

Cell Line | relative viability
NCI-H322M | 0.474
LCLC-97TM1 | 0.187
A-427 | 0.952
NCI-H441 | 0.532
NCI-H1734 | 0.338
NCI-H460 | 0.13
NCI-H2347 | 0.514
NCI-H1395 | 0.5
201T | 0.714
NCI-H1915 | 0.958
HCC-827 | 0.33
LXF-289 | 0.798
NCI-H23 | 0.374
NCI-H647 | 0.459
CAL-12T | 0.535
NCI-H1651 | 0.42
EPLC-272H | 0.436

Same assay, conditions: first compound 8 µM

Cell Line | relative viability
NCI-H727 | 0.493
NCI-H1993 | 0.767
NCI-H838 | 0.771
LCLC-103H | 0.553
NCI-H2126 | 0.559
EMC-BAC-2 | 0.617
NCI-H2085 | 0.409
HCC-366 | 0.188
NCI-H1666 | 0.738
NCI-H596 | 0.388
LK-2 | 1.21
NCI-H2087 | 0.972
H3255 | 0.496
LOU-NH91 | 0.639
NCI-H2170 | 0.681
NCI-H2405 | 0.556
HOP-62 | 0.903
LU99A | 0.421
BEN | 0.947

Cell Line | relative viability
HARA | 0.708
HCC-78 | 0.194
NCI-H322M | 0.48
LCLC-97TM1 | 0.204
A-427 | 1.06
NCI-H441 | 0.66
NCI-H1734 | 0.521
NCI-H460 | 0.18
NCI-H2347 | 0.719
NCI-H1395 | 0.587
201T | 0.848
NCI-H1915 | 1.05
HCC-827 | 0.351
LXF-289 | 0.706
NCI-H23 | 0.597
NCI-H647 | 0.526
CAL-12T | 0.721
NCI-H1651 | 0.777
EPLC-272H | 0.577
